Test results taken from patent US20060110769A1, “Regulation of novel human prolyl 4-hydroxylases” (Bayer Aktiengesellschaft, priority 2001, published 2006).

System: human prolyl 4-hydroxylase
Test: Expression of human prolyl 4-hydroxylase by Western blotting in oligonucleotide-treated HCT116 cells
Assay type: cell-based
Details: HCT116, 10 μM once per day for seven days
Procedure: The cell line used for testing is the human colon cancer cell line HCT116. Cells are cultured in RPMI-1640 with 10-15% fetal calf serum at a concentration of 10,000 cells per milliliter in a volume of 0.5 ml and kept at 37° C. in a 95% air/5% CO2 atmosphere.
Phosphorothioate oligoribonucleotides are synthesized on an Applied Biosystems Model 380B DNA synthesizer using phosphoroamidite chemistry. A sequence of 24 bases complementary to the nucleotides at position 1 to 24 of SEQ ID NO:1 or SEQ ID NO:3 is used as the test oligonucleotide. As a control, another (random) sequence is used: 5′-TCAACTGACTAGATGTACATGGAC-3′ (SEQ ID NO:11). Following assembly and deprotection, oligonucleotides are ethanol-precipitated twice, dried, and suspended in phosphate buffered saline at the desired concentration. Purity of the oligonucleotides is tested by capillary gel electrophoresis and ion exchange HPLC. The purified oligonucleotides are added to the culture medium at a concentration of 10 μM once per day for seven days.
This effect is not observed with the control oligonucleotide. After 3 to 7 days, the number of cells in the cultures is counted using an automatic cell counter. The number of cells in cultures treated with the test oligonucleotide (expressed as 100%) is compared with the number of cells in cultures treated with the control oligonucleotide.

5′-TCAACTGACTAGATGTACATGGAC-3′ (TCAACTGACTAGATGTACATGGAC; listed as DNA, chemistry not given here) [control oligonucleotide]
expression of human prolyl 4-hydroxylase as determined by Western blotting: not observed
